These results are taken from patent US20260184707A1, “PHARMACEUTICAL COMPOUNDS FOR THE TREATMENT OF COMPLEMENT MEDIATED DISORDERS” (ALEXION PHARMACEUTICALS, INC., priority 2022, published 2026).

Structures are written as SMILES.

This assay addresses T1, Human complement C1s enzyme (Homo sapiens, UniProt P09871).
T1 construct: purified from human serum, Complement Technology, Inc; purchased Complement Technology, Inc; host or cells: human serum (plasma-derived native protein)
T1 sequence (P09871 438-688 limits assumed): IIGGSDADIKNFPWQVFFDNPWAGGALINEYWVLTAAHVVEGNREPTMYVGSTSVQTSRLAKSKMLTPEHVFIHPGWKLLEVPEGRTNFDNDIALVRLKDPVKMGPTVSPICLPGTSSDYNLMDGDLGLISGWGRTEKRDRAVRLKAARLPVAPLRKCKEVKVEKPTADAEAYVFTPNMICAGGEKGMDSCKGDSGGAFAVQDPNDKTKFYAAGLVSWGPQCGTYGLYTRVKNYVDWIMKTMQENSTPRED
T1 sequence (P09871 16-437 partner limits assumed): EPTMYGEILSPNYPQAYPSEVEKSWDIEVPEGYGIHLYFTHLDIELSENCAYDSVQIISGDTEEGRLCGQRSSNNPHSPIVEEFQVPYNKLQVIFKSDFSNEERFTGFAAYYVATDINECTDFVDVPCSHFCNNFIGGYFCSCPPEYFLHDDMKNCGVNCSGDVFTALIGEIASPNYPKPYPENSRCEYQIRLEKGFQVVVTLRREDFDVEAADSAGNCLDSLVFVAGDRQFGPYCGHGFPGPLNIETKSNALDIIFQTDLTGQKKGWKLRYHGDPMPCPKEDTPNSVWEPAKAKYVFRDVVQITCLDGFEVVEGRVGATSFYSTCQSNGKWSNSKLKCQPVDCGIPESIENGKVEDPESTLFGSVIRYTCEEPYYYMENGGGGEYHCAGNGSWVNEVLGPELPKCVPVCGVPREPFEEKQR
As to the kind of experiment: Human C1s enzyme assay. It is filed as biochemical. The settings on record: human complement C1s enzyme 1.16 nM, substrate Z-L-Lys-SBzl, A405; read-out: IC50 (Stars). Put shortly:
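Serum-purified human C1s (1.16 nM final) preincubated 5 min at room temperature with compound in 50 mM Tris, 1 M NaCl, pH 7.5. Z-L-Lys-SBzl and DTNB added at 100 μM each; A405 recorded every 30 s. IC50 from nonlinear regression of reaction rates versus compound concentration.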

`C[C@@H](Nc1cnc(-c2ccc(OCCCCCCCN)cc2)n(CC(=O)NCc2cc3cnccc3[nH]2)c1=O)c1ccc2oc3ccccc3c2c1` [Compound 451, (R)—N-((1H-Pyrrolo[3,2-c]pyridine-2-yl)methyl)-2-(2-(4-((7-aminoheptyl)oxy)phenyl)-5-((1-(dibenzo[b,d]furan-2-yl)ethyl)amino)-6-oxopyrimidin-1(6H)-yl)acetamide]: the IC50 is less than 100 nM.
To `C[C@H](Nc1cnc(-c2ccccc2)n(CC(=O)NCc2cc3cnccc3[nH]2)c1=O)c1ccc(Oc2ccccc2)cc1` [Compound 62, (S)-N-((1H-pyrrolo[3,2-c]pyr-idin-2-yl)methyl)-2-(6-oxo-5-((1-(4-phenoxyphenyl)ethyl)-amino)-2-phenylpyrimidin-1(6H)-yl)acetamide] belongs less than 100 nM; to `O=C(Cn1c(-c2ccccc2)ncc(NC(=O)c2nnc(-c3ccccc3)o2)c1=O)NCc1cc2cnccc2[nH]1` [Compound 223, N-(1-(2-(((1H-pyrrolo[3,2-c]pyridine-2-yl)methyl)amino)-2-oxoethyl)-6-oxo-2-phenyl-1,6-dihydropyrimidin-5-yl)-5-phenyl-1,3,4-oxadiazole-2-carboxamide], less than 100 nM; to `C[C@@H](Nc1ncc(-c2cscn2)n(CC(=O)NCc2cc3cnccc3[nH]2)c1=O)c1ccc(-c2ccccc2F)cc1` [Compound 432, (R)-N-((1H-pyrrolo[3,2-c]pyridin-2-yl)methyl)-2-(3-((1-(2′-fluoro-[1,1′-biphenyl]-4-yl)ethyl)amino)-2-oxo-6-(thiazol-4-yl)pyrazin-1(2H)-yl)acetamide], less than 100 nM.
Take `O=C(Cn1cncc(NCc2ccc3oc4ccccc4c3c2)c1=O)NCc1cc2cnccc2[nH]1` [Compound 246, 2-[5-(Dibenzofuran-2-ylmethylamino)-6-oxo-pyrimidin-1-yl]-N-(1H-pyrrolo[3,2-c]pyridine-2-ylmethyl)acetamide]: the IC50 is less than 100 nM.
For `COc1c(NC(=O)c2ccc(-c3ccccc3)s2)ccc(-c2ccccc2)c1CC(=O)NCc1cc2cnccc2[nH]1` [Compound 129, N-(2-(2-(((1H-Pyrrolo[3,2-c]pyridine-2-yl)methyl)amino)-2-oxoethyl)-3-methoxy-[1,1′-biphenyl]-4-yl)-5-phenylthiophene-2-carboxamide] the value was more than 1000 nM.
To `C[C@@H](Nc1cnc(N2CCCCC2)n(CC(=O)NCc2cc3cnccc3[nH]2)c1=O)c1ccc(-c2ccccc2F)cc1` [Compound 416, (R)-N-((1H-pyrrolo[3,2-c]pyridin-2-yl)methyl)-2-(5-((1-(2′-fluoro-[1,1′-biphenyl]-4-yl)ethyl)amino)-6-oxo-2-(piperidin-1-yl)pyrimidin-1(6H)-yl)acetamide] belongs less than 100 nM; to `O=C(Cn1c(-c2ccccc2)ncc(NC(=O)c2cccc(-c3nccs3)c2)c1=O)NCc1cc2cnccc2[nH]1` [Compound 167, N-(1-(2-(((1H-pyrrolo[3,2-c]pyridine-2-yl)methyl)amino)-2-oxoethyl)-6-oxo-2-phenyl-1,6-dihydropyrimidin-5-yl)-3-(thiazol-2-yl)benzamide], less than 100 nM; to `O=C(Cn1c(N2CCCCC2)cnc(NCc2cc(-c3ccccc3)ns2)c1=O)NCc1cc2cnccc2[nH]1` [Compound 477, N-((1H-pyrrolo[3,2-c]pyridin-2-yl)methyl)-2-(2-oxo-3-(((3-phenylisothiazol-5-yl)methyl)-amino)-6-(piperidin-1-yl)pyr-azin-1(2H)-yl)acetamide], less than 100 nM.
As to `Cc1cn(CC(=O)NCc2cc3cnccc3[nH]2)c(=O)c(N[C@H](C)c2ccc3oc4ccccc4c3c2)n1` [Compound 333, (R)—N-((1H-pyrrolo[3,2-c]pyridine-2-yl)methyl)-2-(3-((1-(dibenzo[b,d]furan-2-yl)ethyl)amino)-5-methyl-2-oxopyrazin-1(2H)-yl)acetamide], the IC50 was less than 100 nM.
To `O=C(Cn1c(-c2ccccc2)ncc(NC(=O)c2cc3ccc2CCc2ccc(cc2)CC3)c1=O)NCc1cc2cnccc2[nH]1` [Compound 83, N-(1-(2-(((1H-pyrrolo[3,2-c]pyridine-2-yl)methyl)amino)-2-oxoethyl)-6-oxo-2-phenyl-1,6-dihydropyrimidin-5-yl)-1,4(1,4)-dibenzenacyclohexaphane-1^2-carboxamide] belongs more than 1000 nM.
As to `O=C(Cn1c(-c2ccccc2)ncc(NCCNC(=O)c2ccc(Oc3ccccc3)cc2)c1=O)NCc1cc2cnccc2[nH]1` [Compound 33, N-(2-((1-(2-(((1H-pyrrolo[3,2-c]pyridin-2-yl)methyl)amino)-2-oxoethyl)-6-oxo-2-phenyl-1,6-dihydropyrimidin-5-yl)amino)ethyl)-4-phenoxybenzamide], the IC50 was less than 100 nM.
For `O=C(Cn1c(-c2ccc(OCCOc3ccc(F)cc3)cc2)ncc(NCc2ccc3oc4ccccc4c3c2)c1=O)NCc1cc2cnccc2[nH]1` [Compound 154, N-((1H-pyrrolo[3,2-c]pyridine-2-yl)methyl)-2-(5-((dibenzo[b,d]furan-2-ylmethyl)amino)-2-(4-(2-(4-fluorophenoxy)ethoxy)phenyl)-6-oxopyrimidin-1(6H)-yl)acetamide] the value was less than 100 nM; for `C[C@@H](Nc1cncn(CC(=O)NCc2cc3cnccc3[nH]2)c1=O)c1coc(-c2ccccc2)n1` [Compound 362, (R)-N-((1H-pyrrolo[3,2-c]pyridin-2-yl)methyl)-2-(6-oxo-5-((1-(2-phenyloxazol-4-yl)-ethyl)amino)pyrimidin-1(6H)-yl)acetamide], 100 to 1000 nM; for `O=C(Cn1c(-c2ccccc2)ncc(-c2nc3c(s2)CCCC3)c1=O)NCc1cc2cnccc2[nH]1` [Compound 30, N-((1H-pyrrolo[3,2-c]pyridin-2-yl)methyl)-2-(6-oxo-2-phenyl-5-(4,5,6,7-tetrahydrobenzo[d]thiazol-2-yl)pyrimidin-1(6H)-yl)acetamide], more than 1000 nM.
Consider `C[C@@H](Nc1ncc(-c2ccccn2)n(CC(=O)NCc2cc3cnccc3[nH]2)c1=O)c1ccc(-c2ccccc2F)cc1` [Compound 449, (R)-N-((1H-pyrrolo[3,2-c]pyridin-2-yl)methyl)-2-(3-((1-(2′-fluoro-[1,1′-biphenyl]-4-yl)ethyl)amino)-2-oxo-6-(pyridin-2-yl)pyrazin-1(2H)-yl)acetamide], for which the IC50 is less than 100 nM.
Regarding `C[C@@H](Nc1nnc(-c2ccccc2F)n(CC(=O)NCc2cc3cnccc3[nH]2)c1=O)c1ccc2oc3ccccc3c2c1` [Compound 390, (R)—N-((1H-pyrrolo[3,2-c]pyridine-2-yl)methyl)-2-(6-((1-(dibenzo[b,d]furan-2-yl)ethyl)amino)-3-(2-fluorophenyl)-5-oxo-1,2,4-triazin-4(5H)-yl)acetamide], the IC50 was less than 100 nM.
For `Cc1nc(-c2ccccc2)nc(OCC(=O)NCc2cc3cnccc3[nH]2)c1NCc1ccc2oc3ccccc3c2c1` [Compound 269, N-((1H-pyrrolo[3,2-c]pyridine-2-yl)methyl)-2-((5-((dibenzo[b,d]furan-2-ylmethyl)amino)-6-methyl-2-phenylpyrimidin-4-yl)oxy)acetamide] the value was more than 1000 nM; for `O=C(Cn1c(-c2ccccc2)ncc(NCCCO[C@@H]2CO[C@H]3[C@@H]2OC[C@H]3O)c1=O)NCc1cc2cnccc2[nH]1` [Compound 190, N-((1H-pyrrolo[3,2-c]pyridine-2-yl)methyl)-2-(5-((3-(((3R,3aR,6R,6aR)-6-hydroxyhexahydrofuro[3,2-b]furan-3-yl)oxy)propyl)amino)-6-oxo-2-phenylpyrimidin-1(6H)-yl)acetamide], less than 100 nM.
Regarding `O=C(Cn1c(-c2ccccc2)ncc(NCc2ccc(Oc3ccccc3)cc2)c1=O)NCc1cc2cnccc2[nH]1` [Compound 20, N-((1H-pyrrolo[3,2-c]pyridin-2-yl)methyl)-2-(6-oxo-5-((4-phenoxybenzyl)amino)-2-phenylpyrimidin-1(6H)-yl)-acetamide], the IC50 is less than 100 nM.
For `C[C@@H](Nc1cnc(N2C3CCC2COC3)n(CC(=O)NCc2cc3cnccc3[nH]2)c1=O)c1ccc2oc3ccccc3c2c1` [Compound 306, N-((1H-pyrrolo[3,2-c]pyridin-2-yl)methyl)-2-(2-(3-oxa-8-azabicyclo[3.2.1]octan-8-yl)-5-(((R)-1-(dibenzo[b,d]furan-2-yl)ethyl)amino)-6-oxopyrimi-din-1(6H)-yl)acetamide], the IC50 is 100 to 1000 nM.
As to `O=C(Cn1c(-c2ccccc2F)ncc(N[C@H]2CCc3ccccc32)c1=O)NCc1cc2cnccc2[nH]1` [Compound 394, (S)—N-((1H-pyrrolo[3,2-c]pyridine-2-yl)methyl)-2-(5-((2,3-dihydro-1H-inden-1-yl)amino)-2-(2-fluorophenyl)-6-oxopyrimidin-1(6H)-yl)acetamide], the IC50 is less than 100 nM.
For `O=C(Cn1c(-c2ccccc2)cnc(NCc2ccc(-c3ccccc3)cc2)c1=O)NCc1cc2cnccc2[nH]1` [Compound 60, N-((1H-pyrrolo[3,2-c]pyridin-2-yl)methyl)-2-(3-(([1,1′-biphenyl]-4-ylmethyl)amino)-2-oxo-6-phenylpyrazin-1(2H)-yl)acetamide] the value was less than 100 nM.

By IC50 is commonly meant the concentration at which inhibition is half-maximal.
